Measurements taken from patent US4556735A, “Spergualin-related compounds having a phenylene group as well as a process for producing the same” (Zaidan Hojin Biseibutsu Kagaku Kenkyukai, priority 1984, dated 1985).
Structures can show the parent of a compound that is named as a salt.

Columns and labels:
[1] = Stability of the compounds in aqueous solution (percent residue by high pressure liquid chromatography); type: physicochemical; details: 0.5 (w/w) % in water, 40°±1° C.
Method: Each of the compounds of the present invention was dissolved in water to give a concentration of 0.5 (w/w) %. The aqueous solution was held at 40°±1° C. and samples were taken at given intervals. They were subjected to high pressure liquid chromatography and the percent residue was calculated for each sample by measuring the peak area ratio.
The percent residue for the compounds of the present invention after the lapse of a given period is shown in Table 2, with the value for the start of the experiment being taken as 100%.

[2] = system: rats; experiment: Toxicity in rats (decrease rate of body weight); type: in vivo, rat; details: intraperitoneal, once a day for 10 days, 6.25 mg/ml in 0.2 ml/100 g
Method: The compound No. 1 was dissolved in physiological saline (the concentration of the compound No. 1: 6.25 mg/ml). The obtained solution was administered intraperitoneally to rats once a day for 10 consecutive days in a volume of 0.2 ml/100 g (body weight).
Decrease rate of body weight of rats was determined as follows: [formula]

[3] = system: mouse leukemia L1210; experiment: Life extending effect against mouse leukemia L1210; type: in vivo; details: 9 consecutive days, >125 considered effective
Method: Leukemia cells L1210 (1×10^5 cells/0.2 ml) were inoculated in the intraperitoneal cavity of CDF1 -SLC female mice (6 mice per group). Two compounds of the present invention were each diluted with physiological saline in various concentrations, and starting on the day following the transplantation, each dilution was administered to the mice for 9 consecutive days in a volume of 0.1 ml 10 g (body weight).
30 Days after the inoculation, the mean survival time (day) for each treated group was calculated, and divided by the mean survival time of the control group, and multiplied by 100 to obtain the percent life prolongation (T/C). T/C values greater than 125 are considered to be effective.

[4] = system: mouse leukemia L1210 cells; experiment: Inhibition of in vitro growth of mouse leukemia L1210 cells; type: cell-based; details: 48 hours at 37° C., 5% CO2
Method: Leukemia L1210 cells (1×10^5 /0.2 ml) were transplanted in the intraperitoneal cavity of DBA/2 strain female mice. Four days later, a sample of the abdominal ascites was taken and centrifuged to obtain L1210 cells. These cells were suspended in an RPMI 1640 medium supplemented with fetal bovine serum and 2-mercaptoethanol to have a final concentration of 5×10^4 cells/0.9 ml.
Each of the compounds of the present invention was dissolved in the medium shown above.
A portion (0.9 ml) of the L1210 cell suspension was mixed with 0.1 ml of the test solution ranging from 0.62 to 1000 μg/ml, and the mixture was incubated in a 5% CO2 atmosphere for 48 hours at 37° C. The cell count was determined both before and after the incubation, and the concentration to inhibit the growth of L1210 cells by 50% of the control (IC50) was determined.

[5] = prior art statement; cited from earlier work
[6] = system: Gram-positive microorganisms; details: cited from earlier work
[7] = system: mouse leukemia L1210; details: cited from earlier work
[8] = system: leukemia EL-4; details: cited from earlier work
[9] = system: Ehrlich carcinoma; details: cited from earlier work
[10] = system: Sarcoma 180; details: cited from earlier work

SMILES | Percent residue in aqueous solution ([1]; Time 0 (taken as 100%)) | Percent residue in aqueous solution ([1]; Time 12 (time unit not given)) | Percent residue in aqueous solution ([1]; Time 24 (time unit not given)) | Percent residue in aqueous solution ([1]; Time 48 (time unit not given)) | Percent residue in aqueous solution ([1]; Time 72 (time unit not given)) | Percent residue in aqueous solution ([1]; Time 120 (time unit not given)) | Percent residue in aqueous solution ([1]; Time 168 (time unit not given)) | IC50 [4] | other results
N=C(N)Nc1ccc(CCCC(=O)N[C@@H](CO)C(=O)NCCCCNCCCN)cc1 [Compound 1, 10-{N-[4-(4-GP)Butanoyl]-L-seryl}-1,5,10-TAD trihydrochloride] | 100% | 99.8% | 99.6% | 99.8% | 99.5% | 99.6% | 99.5% |  | Decrease rate of body weight of rats [2]: very small; toxicity ([2]; rats): a little; T/C (percent life prolongation) ([3]; 0.39 mg/kg/day): 149%; T/C (percent life prolongation) ([3]; 0.78 mg/kg/day): 406%; T/C (percent life prolongation) ([3]; 1.56 mg/kg/day): 435%; T/C (percent life prolongation) ([3]; 3.13 mg/kg/day): 435%; T/C (percent life prolongation) ([3]; 6.25 mg/kg/day): 435%; T/C (percent life prolongation) ([3]; 12.50 mg/kg/day): 420%; T/C (percent life prolongation) ([3]; 25.00 mg/kg/day): 178%
N=C(N)Nc1ccc(CCCC(=O)NCC(=O)NCCCCNCCCN)cc1 [Compound 2, 10-{N-[4-(4-GP)Butanoyl]glycyl}-1,5,10-TAD trihydrochloride] | 100% | 99.7% | 99.9% | 99.8% | 99.9% | 100% | 99.8% |  | T/C (percent life prolongation) ([3]; 0.39 mg/kg/day): 109%; T/C (percent life prolongation) ([3]; 0.78 mg/kg/day): 145%; T/C (percent life prolongation) ([3]; 1.56 mg/kg/day): 435%; T/C (percent life prolongation) ([3]; 3.13 mg/kg/day): 435%; T/C (percent life prolongation) ([3]; 6.25 mg/kg/day): 435%; T/C (percent life prolongation) ([3]; 12.50 mg/kg/day): 435%; T/C (percent life prolongation) ([3]; 25.00 mg/kg/day): 435%; T/C (percent life prolongation) ([3]; 50.00 mg/kg/day): 15%
N=C(N)NCc1ccc(CCC(=O)N[C@@H](CO)C(=O)NCCCCNCCCN)cc1 [Compound 3, 10-{N-[3-(4-GMP)Propanoyl]-L-seryl}-1,5,10-TAD trihydrochloride] | 100% | 99.6% | 99.5% | 99.8% | 99.6% | 99.6% | 99.8% |  | 
N=C(N)NCCCc1ccc(C(=O)N[C@@H](CO)C(=O)NCCCCNCCCN)cc1 [Compound 4, 10-{N-[4-(3-GPro)Benzoyl]-L-seryl}-1,5,10-TAD trihydrochloride] | 100% | 99.6% | 99.9% | 99.6% | 99.7% | 99.9% | 99.5% | 1.1 µg/mL | 
N=C(N)NCc1cccc(CCC(=O)N[C@@H](CO)C(=O)NCCCCNCCCN)c1 [Compound 5, 10-{N-[3-(3-GMP)Propanoyl]-L-seryl}-1,5,10-TAD trihydrochloride] | 100% | 99.9% | 99.6% | 99.6% | 99.9% | 99.6% | 99.8% |  | 
N=C(N)Nc1ccc(CCCCC(=O)N[C@@H](CO)C(=O)NCCCCNCCCN)cc1 [Compound 6, 10-{N-[5-(4-GP)Pentanoyl]-L-seryl}-1,5,10-TAD trihydrochloride] | 100% | 99.5% | 99.8% | 99.7% | 99.7% | 99.5% | 100% |  | 
N=C(N)NCCCc1ccc(C(=O)NCC(=O)NCCCCNCCCN)cc1 [Compound 7, 10-{N-[4-(3-GPro)Benzoyl]glycyl}-1,5,10-TAD trihydrochloride] | 100% | 99.6% | 99.6% | 100% | 100% | 99.9% | 99.7% | 0.92 µg/mL | 
N=C(N)NCc1ccccc1CCCCC(=O)N[C@@H](CO)C(=O)NCCCCNCCCN [Compound 8, 10-{N-[5-(2-GMP)Pentanoyl]-L-ceryl}-1,5,10-TAD trihydrochloride] | 100% | 99.7% | 99.9% | 99.5% | 99.8% | 99.7% | 99.8% | 0.97 µg/mL | 
N=C(N)NCc1ccc(CCC(=O)N[C@@H](CO)C(=O)NCCCCNCCCN)c(Cl)c1 [Compound 9, 10-{N-[3-(2-Chloro-4-GMP)propanoyl]-L-seryl}-1,5,10-TAD trihydrochloride] | 100% | 99.8% | 99.8% | 99.7% | 100% | 99.5% | 99.6% |  | 
N=C(N)NCCCCC(O)CC(=O)NC(O)C(=O)NCCCCNCCCN (stereo not drawn) [Spergualin] | 100% |  |  |  |  |  |  |  | stability in an aqueous solution [5]: unstable; inhibit the growth of Gram-positive microorganisms [6]: ability to inhibit the growth; antineoplastic effects [7]: significant antineoplastic effects; antineoplastic effects [8]: significant antineoplastic effects; antineoplastic effects [9]: significant antineoplastic effects; antineoplastic effects [10]: significant antineoplastic effects
